Laboratory results as given in the supplement of paper PMC10307832.

Legend:
Assay in all cases: relative viability (nuclei count vs DMSO), 5 days (fraction); higher = more cells survive
SK-LU-1 = test system: SK-LU-1
Summary of the method: (§1)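 Lung cancer cell lines, seeded in 1536-well plates, were treated the following day by pin tool with a single drug or with five library-drug doses (not always all listed) in √10 steps on top of a fixed anchor-drug dose. Cells were fixed and nuclei stained in one step after 5 days, and nuclei were counted. Relative viability is the nuclei count for treated wells divided by that for vehicle wells, reported as medians of duplicate plates.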

CAL-12T = test system: CAL-12T
Summary of the method: as §1

HOP-62 = test system: HOP-62
Summary of the method: as §1

NCI-H1395 = test system: NCI-H1395
Summary of the method: as §1

HCC-827 = test system: HCC-827
Summary of the method: as §1

NCI-H1792 = test system: NCI-H1792
Summary of the method: as §1

HCC-366 = test system: HCC-366
Summary of the method: as §1

HARA = test system: HARA
Summary of the method: as §1

EMC-BAC-2 = test system: EMC-BAC-2
Summary of the method: as §1

NCI-H460 = test system: NCI-H460
Summary of the method: as §1

NCI-H2228 = test system: NCI-H2228
Summary of the method: as §1

SW 1573 = test system: SW 1573
Summary of the method: as §1

NCI-H727 = test system: NCI-H727
Summary of the method: as §1

NCI-H1755 = test system: NCI-H1755
Summary of the method: as §1

NCI-H2009 = test system: NCI-H2009
Summary of the method: as §1

LCLC-103H = test system: LCLC-103H
Summary of the method: as §1

A-427 = test system: A-427
Summary of the method: as §1

NCI-H522 = test system: NCI-H522
Summary of the method: as §1

COR-L 105 = test system: COR-L 105
Summary of the method: as §1

NCI-H1915 = test system: NCI-H1915
Summary of the method: as §1

NCI-H23 = test system: NCI-H23
Summary of the method: as §1

NCI-H1437 = test system: NCI-H1437
Summary of the method: as §1

In the case of `O=c1cc(-c2cccc3c2Sc2ccccc2S3)oc(N2CCOCC2)c1` + CC(=O)Nc1cccc(-n2c(=O)n(C3CC3)c(=O)c3c(Nc4ccc(I)cc4F)n(C)c(=O)c(C)c32)c1 [Trametinib] (partner 0.02 µM), the relative viability (SK-LU-1; first compound 0.08 µM) is reported as 0.422, the relative viability (SK-LU-1; first compound 0.253 µM) is reported as 0.512 and the relative viability (SK-LU-1; first compound 0.8 µM) is reported as 0.582. The relative viability (SK-LU-1; first compound 2.53 µM) was 0.414, the relative viability (SK-LU-1; first compound 8 µM) was 0.415 and the relative viability (CAL-12T; first compound 0.08 µM) was 0.297. The relative viability (CAL-12T; first compound 0.253 µM) was 0.333, the relative viability (CAL-12T; first compound 0.8 µM) was 0.305 and the relative viability (CAL-12T; first compound 2.53 µM) was 0.263. It also gave a relative viability (CAL-12T; first compound 8 µM) of 0.246, a relative viability (HOP-62; first compound 0.08 µM) of 0.401 and a relative viability (HOP-62; first compound 0.253 µM) of 0.394. For the same molecule, the relative viability (HOP-62; first compound 0.8 µM) was 0.348, the relative viability (HOP-62; first compound 2.53 µM) was 0.319 and the relative viability (HOP-62; first compound 8 µM) was 0.321. For the same molecule, the relative viability (NCI-H1395; first compound 0.08 µM) was 0.883, the relative viability (NCI-H1395; first compound 0.253 µM) was 1.05 and the relative viability (NCI-H1395; first compound 0.8 µM) was 1.14. It also gave a relative viability (NCI-H1395; first compound 2.53 µM) of 0.964, a relative viability (NCI-H1395; first compound 8 µM) of 1.06 and a relative viability (HCC-827; first compound 0.08 µM) of 0.508. For the same molecule, the relative viability (HCC-827; first compound 0.253 µM) was 0.563, the relative viability (HCC-827; first compound 0.8 µM) was 0.537 and the relative viability (HCC-827; first compound 2.53 µM) was 0.427. It also gave a relative viability (HCC-827; first compound 8 µM) of 0.544, a relative viability (NCI-H1792; first compound 0.08 µM) of 0.446 and a relative viability (NCI-H1792; first compound 0.253 µM) of 0.685. For the same molecule, the relative viability (NCI-H1792; first compound 0.8 µM) was 0.441, the relative viability (NCI-H1792; first compound 2.53 µM) was 0.421 and the relative viability (NCI-H1792; first compound 8 µM) was 0.38. It also gave a relative viability (HCC-366; first compound 0.08 µM) of 0.31, a relative viability (HCC-366; first compound 0.253 µM) of 0.474 and a relative viability (HCC-366; first compound 0.8 µM) of 0.339. It also gave a relative viability (HCC-366; first compound 2.53 µM) of 0.33, a relative viability (HCC-366; first compound 8 µM) of 0.284 and a relative viability (HARA; first compound 0.08 µM) of 0.786. It also gave a relative viability (HARA; first compound 0.253 µM) of 0.615, a relative viability (HARA; first compound 0.8 µM) of 0.537 and a relative viability (HARA; first compound 2.53 µM) of 0.668. For the same molecule, the relative viability (HARA; first compound 8 µM) was 0.581, the relative viability (EMC-BAC-2; first compound 0.08 µM) was 0.804 and the relative viability (EMC-BAC-2; first compound 0.253 µM) was 1.04. The relative viability (EMC-BAC-2; first compound 0.8 µM) was 0.842, the relative viability (EMC-BAC-2; first compound 2.53 µM) was 0.908 and the relative viability (EMC-BAC-2; first compound 8 µM) was 0.895. The relative viability (NCI-H460; first compound 0.08 µM) was 0.147, the relative viability (NCI-H460; first compound 0.253 µM) was 0.163 and the relative viability (NCI-H460; first compound 0.8 µM) was 0.113. It also gave a relative viability (NCI-H460; first compound 2.53 µM) of 0.091, a relative viability (NCI-H460; first compound 8 µM) of 0.1 and a relative viability (NCI-H2228; first compound 0.08 µM) of 0.554. The relative viability (NCI-H2228; first compound 0.253 µM) was 0.72, the relative viability (NCI-H2228; first compound 0.8 µM) was 0.582 and the relative viability (NCI-H2228; first compound 2.53 µM) was 0.416. The relative viability (NCI-H2228; first compound 8 µM) was 0.447, the relative viability (SW 1573; first compound 0.08 µM) was 0.597 and the relative viability (SW 1573; first compound 0.253 µM) was 0.691. For the same molecule, the relative viability (SW 1573; first compound 0.8 µM) was 0.575, the relative viability (SW 1573; first compound 2.53 µM) was 0.574 and the relative viability (SW 1573; first compound 8 µM) was 0.554. The relative viability (NCI-H727; first compound 0.08 µM) was 0.367, the relative viability (NCI-H727; first compound 0.253 µM) was 0.37 and the relative viability (NCI-H727; first compound 2.53 µM) was 0.311. The relative viability (NCI-H727; first compound 8 µM) was 0.389, the relative viability (NCI-H1755; first compound 0.08 µM) was 0.739 and the relative viability (NCI-H1755; first compound 0.253 µM) was 0.867. It also gave a relative viability (NCI-H1755; first compound 0.8 µM) of 0.732, a relative viability (NCI-H1755; first compound 2.53 µM) of 0.789 and a relative viability (NCI-H1755; first compound 8 µM) of 0.787. The relative viability (NCI-H2009; first compound 0.08 µM) was 0.257, the relative viability (NCI-H2009; first compound 0.253 µM) was 0.236 and the relative viability (NCI-H2009; first compound 0.8 µM) was 0.24. The relative viability (NCI-H2009; first compound 2.53 µM) was 0.213, the relative viability (NCI-H2009; first compound 8 µM) was 0.208 and the relative viability (LCLC-103H; first compound 0.08 µM) was 0.698. For the same molecule, the relative viability (LCLC-103H; first compound 0.253 µM) was 0.713, the relative viability (LCLC-103H; first compound 0.8 µM) was 0.631 and the relative viability (LCLC-103H; first compound 2.53 µM) was 0.662. It also gave a relative viability (LCLC-103H; first compound 8 µM) of 0.623, a relative viability (A-427; first compound 0.08 µM) of 0.718 and a relative viability (A-427; first compound 0.253 µM) of 0.867. The relative viability (A-427; first compound 0.8 µM) was 0.735, the relative viability (A-427; first compound 2.53 µM) was 0.709 and the relative viability (A-427; first compound 8 µM) was 0.747. The relative viability (NCI-H522; first compound 0.08 µM) was 0.725, the relative viability (NCI-H522; first compound 0.253 µM) was 0.988 and the relative viability (NCI-H522; first compound 0.8 µM) was 0.724. The relative viability (NCI-H522; first compound 2.53 µM) was 0.815, the relative viability (NCI-H522; first compound 8 µM) was 0.734 and the relative viability (COR-L 105; first compound 0.08 µM) was 0.397. It also gave a relative viability (COR-L 105; first compound 0.253 µM) of 0.359, a relative viability (COR-L 105; first compound 0.8 µM) of 0.383 and a relative viability (COR-L 105; first compound 2.53 µM) of 0.434. It also gave a relative viability (COR-L 105; first compound 8 µM) of 0.461, a relative viability (NCI-H1915; first compound 0.08 µM) of 0.293 and a relative viability (NCI-H1915; first compound 0.253 µM) of 0.312. It also gave a relative viability (NCI-H1915; first compound 0.8 µM) of 0.32, a relative viability (NCI-H1915; first compound 2.53 µM) of 0.285 and a relative viability (NCI-H1915; first compound 8 µM) of 0.264. The relative viability (NCI-H23; first compound 0.08 µM) was 0.334, the relative viability (NCI-H23; first compound 0.253 µM) was 0.418 and the relative viability (NCI-H23; first compound 0.8 µM) was 0.349. It also gave a relative viability (NCI-H23; first compound 2.53 µM) of 0.313, a relative viability (NCI-H23; first compound 8 µM) of 0.317 and a relative viability (NCI-H1437; first compound 0.08 µM) of 0.47. For the same molecule, the relative viability (NCI-H1437; first compound 0.253 µM) was 0.64, the relative viability (NCI-H1437; first compound 0.8 µM) was 0.483 and the relative viability (NCI-H1437; first compound 2.53 µM) was 0.395. For the same molecule, the relative viability (NCI-H1437; first compound 8 µM) was 0.412.
